Assay results published in article PMC8955938, “c-Myc Protein Level Affected by Unsymmetrical Bisacridines Influences Apoptosis and Senescence Induced in HCT116 Colorectal and H460 Lung Cancer Cells” (International Journal of Molecular Sciences, 2022).

Tests used:
Assay type in all cases: cell-based, human
HCT116 cells = experiment: Accelerated senescence (SA-β-gal), HCT116; details: HCT116, IC90 doses, up to 120 h
Experimental: The accelerated senescence examination was based on the analysis of pH 6.0-dependent β-galactosidase (SA-β-gal) expression together with senescence-related morphology, such as enlarged and flattened cells. HCT116 and H460 cells were seeded in 60 mm plates containing microscope coverslips and treated with UAs for up to 120 h. […] The cells were then washed twice with PBS (pH 6.0) and incubated at pH 6.0 with X-gal (5-bromo-4-chloro-3-indolyl-β-D-[…], substrate for SA-β-gal) staining solution (1 mg/mL X-gal, 40 mmol/L citric acid/sodium phosphate, pH 6.0, 5 mmol/L potassium ferrocyanide, 5 mmol/L potassium ferricyanide, 150 mmol/L NaCl, 2 mmol/L MgCl2). Following overnight incubation at 37 °C, cells were washed twice with PBS and observed under a light microscopy (OLYMPUS BX60; magnification ×200).

H460 cells = experiment: Apoptosis in H460, summary of all conducted experiments; details: H460, IC90 doses, 120 h, summary in discussion
Experimental: Nuclear morphology was examined under a fluorescence microscope (OLYMPUS BX60, […]) after staining with Hoechst 33342. Briefly, after drug treatment, HCT116, H460, CCD 841 CoN and MRC-5 cells were spun onto microscopic slides, fixed with methanol:acetic acid (3:1) for 15 min and stained with Hoechst 33342 (1 mg/mL) for 15 min. Cells were regarded as apoptotic based on the presence of condensed, fragmented chromatin. Enlarged cells containing multiple nuclei were considered as typical of mitotic catastrophe.
Annexin V–FITC binding was performed with an Annexin-V Fluos Staining kit (BD Biosciences, San Jose, CA, USA) according to manufacturer’s protocol. […] Cells were incubated for 15 min at room temperature in the dark, then diluted with 400 µL of binding buffer and analyzed by flow cytometry with FACS Accuri C6 (BD, San Jose, CA, USA). Cells with low FITC and PI fluorescence were considered viable. Cells that presented high FITC fluorescence but low PI fluorescence were regarded as early apoptotic. Late apoptotic cells presented high FITC and PI fluorescence. Necrotic cells had low FITC fluorescence and high PI fluorescence.
Caspase-3 activity was determined using Alexa Fluor 647-conjugated anti-active caspase-3 antibody (BD Biosciences, San Diego, CA, USA) according to the manufacturer’s instructions. […]

[1] = system: KRAS gene expression in HCT116 cells; experiment: RT-PCR KRAS expression in HCT116; details: HCT116, IC90 doses, up to 120 h
Experimental: HCT116, H460, CCD 841 CoN and MRC-5 cells after treatment with UAs were collected, washed twice with ice-cold PBS and resuspended in […] of PBS. mRNA was isolated using High Pure RNA Isolation Kit according to the manufacturer’s instructions (Roche, Basel, Switzerland). Briefly, cells were lysed in lysis-binding buffer and transferred to a filter tube. Contaminating DNA was removed by 15 min incubation of the filter tube with DNase I solution. The filter tube was washed once with buffer I and twice with buffer II, and after centrifugation, total RNA was eluted using the elution buffer. RNA concentration was determined by NanoDrop One (Thermo Scientific); 1 µg of RNA was reverse transcribed using Transcriptor First Strand cDNA Synthesis Kit according to the manufacturer’s instructions (Roche) in 20 µL of reaction containing 1 µg of RNA, […] anchored-oligo(dT)18Primer, 8 mM MgCl2, 20 U of Protector RNase Inhibitor, deoxynucleotide mix (1 mM each) and 22 U of Transcriptor Reverse Transcriptase. The reverse transcription reaction was carried out for 30 min at 55 °C and stopped by heating to 85 °C for 5 min and placing on ice. The cDNA solution was stored at −20 °C until use. […] The relative expression level of MYC and KRAS was quantified using comparative method […]. The results were obtained from three independent experiments, each of which was analyzed at least twice.

SMILES	accelerated senescence (SA-β-gal blue staining) (HCT116 cells)	treated cells that underwent apoptosis (H460 cells)	KRAS expression compared to untreated control [1]
O=c1c2ccccc2n2cnc3ccc(NCCCN4CCN(CCCNc5c6ccccc6nc6cccc([N+](=O)[O-])c56)CC4)c1c32 [Compound C-2041]	a few cells with characteristic blue color were observed		
Cc1ccc([N+](=O)[O-])c2c(NCCCN(C)CCCNc3ccc4ncn5c6ccc(O)cc6c(=O)c3c45)c3ccccc3nc12 [Compound C-2045]		about 60%	
Cc1ccc([N+](=O)[O-])c2c(NCCCN(C)CCCNc3ccc4ncn5c6ccccc6c(=O)c3c45)c3ccccc3nc12 [Compound C-2053]		about 60%	significant difference
